From patent publication US6235761A, “Compound, composition and method for treating cancer” (priority 1999, dated 2001)

Key:
[1] = Distribution of penclomedine and its metabolites in mouse tissues; format: in vivo, CD2F1 mice; details: for level in liver: mouse liver versus other tissues
Experimental: CD2F1 Mice were obtained from Harlan Sprague-Dawley (Frederick, Md.). During the course of this study, mice were housed in polyethylene shoe box cages without bedding and given access to food and water. Four mice were used per time point.
^14 C-Penclomedine (specific activity 17.6 and 18.9 mCi/mM, labeled at CCl3) was obtained from Research Triangle Institute (Research Triangle Park, N.C.) and stored at -20° C. The site of radiolabel has been conserved in all penclomedine metabolites identified to date. The composition of the radioactive material was determined to be 99% ^14 C-penclomedine, by HPLC coupled with radiochemical detection.
^14 C-penclomedine (1 mCi/ml in ethanol) was added to the clinical penclomedine emulsion to give an activity of […] (4% ethanol final concentration). The mice were administered the above penclomedine formulation at 40 mg/kg (120 mg/m^2, […]) either intravenously via tail vein or orally via gavage. At 1, 2, 4, and 22 hours after intravenous administration and 2,4, 6, and 22 hours after oral administration, animals were euthanized with carbon dioxide and blood tissues were collected. Blood tissues from each time point were pooled. Blood was centrifuged and plasma and red cells were separated; tissues were homogenized in 3 volumes of 100 mM ammonium formate buffer pH 6.5. Urinary output was estimated by washing the cages with water after removing food and feces and concentrating these cage washings.
A 1 ml aliquot of tissue homogenate or a […] was acidified with 200 ml of 0.7 M ammonium phosphate pH 2.7, then 3 ml of ethyl acetate was added. This mixture was vortexed, centrifuged and the organic layer was collected. Fifty microliters of DMSO were added, and the ethyl acetate was concentrated to approximately […] with a stream of dry nitrogen. Fifty microliters of acetonitrile were added to this residue, and the resulting solution was analyzed by HPLC. Human plasma was processed identically to mouse plasma with the exception that 500 ml of plasma was extracted. Concentrated cage washings were analyzed by HPLC without further processing.
Plasma and tissue protein binding data were measured on the residue of the above extractions. The aqueous phase was washed with 5 ml of ethanol, centrifuged, and the ethanol insoluble precipitate was washed again with 5 ml ethanol. After centrifugation the pellet was resuspended in 0.5 ml 6 M guanidinium chloride, added to 10 ml 3a70B scintillation cocktail (Research Products International Corp., Mount Prospect, Ill.), and counted for ^14 C.
HPLC Assays: The HPLC system consisted of a Hewlett-Packard Series II 1090 liquid chromatograph with diode array detector (Hewlett-Packard, Palo Alto, Calif.). The column used was an Alltech Adsorbosphere HS C18 5 m 250×4.6 mm column (Alltech Associates, Deerfield, Ill.). The system used a gradient elution consisting of 100% 10 mM ammonium phosphate buffer pH 2.7 progressing to 100% acetonitrile over 25 minutes at 1 ml/min. Detection was performed by means of ultraviolet absorbance at 240 nm as well as by means of radioactivity using a Radiomatic Flo-One/Beta A140 radioactive flow detector (Packard Instrument Co., Downers Grove, Ill.) equipped with a […] and Flo-Scint VI scintillation cocktail at a 2:1 ratio.
^14 C-Penclomedine derived radioactivity was determined in mouse urine samples collected at 1, 2, 4, and 22 hours following intravenous and oral administration of^14 C-penclomedine. […] There were considerable differences in metabolite distribution among the different tissues. […] Most compounds present in the 2 hour samples were detectable in the 22 hour samples at levels from 10% to 50% of those seen at 2 hours.

[2] = system: mammals, especially humans; assay: Neurotoxicity of penclomedine versus 4-demethylpenclomedine; format: in vivo, human; details: for neurotoxicity versus metabolite levels: administration of penclomedine to patients
Experimental: It has been observed that 4-demethylpenclomedine was present in clinical samples and continued to be present in the plasma for longer than 24 hours.

[3] = system: MX-1 Mammary Tumor Xenograft; assay: Subcutaneously-implanted MX-1 mammary tumor xenograft in mice (Table 1); format: in vivo, human tumor in mice; details: for Days to 2 Doublings / Non-Specific Deaths / Total / Tumor Free Survival/Total / Tumor Delay (T-C) / Tumor Regression, Complete / Tumor Regression, Partial / Duration of regression, Med: x5, from Day 12; for Tumor Delay (T-C): control 8.0 days; for Tumor Regression, Complete / Tumor Regression, Partial: number of mice
Experimental: This Example illustrates the efficacy of penclomedine and 4-demethylpenclomedine in the treatment of cancer. MX-1 mammary tumor xenograft was subcutaneously implanted into mice, and the mice were exposed to the compounds. The testing of the mice was performed following a published procedure. See, e.g., Plowman et al., supra; Geran et al., Cancer Chemother. Rep., Part 2, 1-55 (1972); Developmental Therapeutics Program, Division of Cancer Treatment, NCI, in In Vivo Models 1976-1982, NIH Publication No. 84-2635, Washington D.C., U.S. Govt. Printing Office (1984).
Response of Subcutaneously-Implanted MX-1 Mammary Tumor Xenograft to
^1 Treatment started on Day 12 following tumor implant.
^2 Nonspecific deaths: A treated, tumored animal was presumed to be a
^3 Tumor regression was scored (excluding nonspecific deaths),
^4 Duration of regression: the interval during which a tumor classified
^5 Evaluation size: this value is the tumor mass selected at one or two
^6 Time required for tumor mass doubling: the time required for a tumor
^7 T-C (days): the difference in the median of times postimplant for […]

## COc1nc(C(Cl)(Cl)Cl)c(Cl)c(O)c1Cl [4-Demethylpenclomedine, 3,5-dichloro-2-methoxy-4-hydroxy-6-(trichloromethyl)-pyridine]
[1]; mouse
  accumulation in fatty tissues compared with penclomedine: does not accumulate in fatty tissues as much as penclomedine
[1]; 14C-penclomedine dosed
  level in liver: liver contained the highest levels of demethylpenclomedine
[2]
  neurotoxicity versus metabolite levels: the levels of this metabolite increased as toxicity due to penclomedine resolved
[3]; 60 mg/kg IP
  Days to 2 Doublings: 23.4 days
  Non-Specific Deaths / Total: 0/5
  Tumor Free Survival/Total: 2/5
  Tumor Delay (T-C): 15.4 days
  Tumor Regression, Complete: 2
  Tumor Regression, Partial: 0
[3]; 90 mg/kg IP
  Days to 2 Doublings: > 49.0 days
  Duration of regression, Med: 32.5 days
  Non-Specific Deaths / Total: 0/5
  Tumor Free Survival/Total: 3/5
  Tumor Delay (T-C): > 41.0 days
  Tumor Regression, Complete: 5
  Tumor Regression, Partial: 0
[3]; 135 mg/kg IP
  Days to 2 Doublings: > 49.0 days
  Duration of regression, Med: 35.7 days
  Non-Specific Deaths / Total: 1/5
  Tumor Free Survival/Total: 3/5
  Tumor Delay (T-C): > 41.0 days
  Tumor Regression, Complete: 4
  Tumor Regression, Partial: 0
[3]; Table 1
  tumor growth delay, comparison of the two compounds: identical tumor growth delay

## COc1nc(C(Cl)(Cl)Cl)c(Cl)c(OC)c1Cl [Penclomedine, 3,5-dichloro-2,4-dimethoxy-6-(trichloromethyl)pyridine]
[1]; brain, 2 hours, i.v. 14C-penclomedine 40 mg/kg
  Tissue Concentration: 1.30 nmoles/gram wet tissue
[1]; brain, 2 hours, p.o. 14C-penclomedine 40 mg/kg
  Tissue Concentration: 2.16 nmoles/gram wet tissue
[1]; carcass, 2 hours, i.v. 14C-penclomedine 40 mg/kg
  Tissue Concentration: 14.8 nmoles/gram wet tissue
[1]; carcass, 2 hours, p.o. 14C-penclomedine 40 mg/kg
  Tissue Concentration: 55.2 nmoles/gram wet tissue
[1]; carcass, 22 hours, i.v. 14C-penclomedine 40 mg/kg
  Tissue Concentration: 5.15 nmoles/gram wet tissue
[1]; carcass, 22 hours, p.o. 14C-penclomedine 40 mg/kg
  Tissue Concentration: 2.16 nmoles/gram wet tissue
[1]; fat, 2 hours, i.v. 14C-penclomedine 40 mg/kg
  Tissue Concentration: 15.8 nmoles/gram wet tissue
[1]; fat, 2 hours, p.o. 14C-penclomedine 40 mg/kg
  Tissue Concentration: 18.55 nmoles/gram wet tissue
[1]; fat, 22 hours, i.v. 14C-penclomedine 40 mg/kg
  Tissue Concentration: 8.90 nmoles/gram wet tissue
[1]; kidney, 2 hours, i.v. 14C-penclomedine 40 mg/kg
  Tissue Concentration: 6.45 nmoles/gram wet tissue
[1]; kidney, 2 hours, p.o. 14C-penclomedine 40 mg/kg
  Tissue Concentration: 7.30 nmoles/gram wet tissue
[1]; kidney, 22 hours, i.v. 14C-penclomedine 40 mg/kg
  Tissue Concentration: 1.21 nmoles/gram wet tissue
[1]; kidney, 22 hours, p.o. 14C-penclomedine 40 mg/kg
  Tissue Concentration: 0.85 nmoles/gram wet tissue
[1]; liver, 2 hours, i.v. 14C-penclomedine 40 mg/kg
  Tissue Concentration: 0.69 nmoles/gram wet tissue
[1]; liver, 2 hours, p.o. 14C-penclomedine 40 mg/kg
  Tissue Concentration: 1.35 nmoles/gram wet tissue
[1]; liver, 22 hours, p.o. 14C-penclomedine 40 mg/kg
  Tissue Concentration: 0.38 nmoles/gram wet tissue
[1]; 14C-penclomedine dosed
  level in liver: the lowest levels of penclomedine
[1]; mouse, 14C-penclomedine dosed
  tissues with highest levels: Highest levels of penclomedine were detected in the fat and carcass
[1]; mouse, 2 hours
  detectability in 2 hour tissue samples: All 2 hour tissue samples contained detectable amounts of penclomedine
[2]
  neurotoxicity versus metabolite levels: neurotoxicity did not increase while levels of this metabolite increased to several times the plasma levels of the parent drug
[2]; in vivo
  neurotoxicity to mammals, especially humans: neurotoxic to mammals, especially to humans
[3]; 60 mg/kg IP
  Days to 2 Doublings: > 49.0 days
  Non-Specific Deaths / Total: 0/5
  Tumor Free Survival/Total: 4/5
  Tumor Delay (T-C): > 41.0 days
  Tumor Regression, Complete: 5
  Tumor Regression, Partial: 0
[3]; 90 mg/kg IP
  Days to 2 Doublings: > 49.0 days
  Non-Specific Deaths / Total: 0/5
  Tumor Free Survival/Total: 5/5
  Tumor Delay (T-C): > 41.0 days
  Tumor Regression, Complete: 5
  Tumor Regression, Partial: 0
[3]; 135 mg/kg IP
  Days to 2 Doublings: > 49.0 days
  Non-Specific Deaths / Total: 0/5
  Tumor Free Survival/Total: 5/5
  Tumor Delay (T-C): > 41.0 days
  Tumor Regression, Complete: 5
  Tumor Regression, Partial: 0
[3]; Table 1
  survival rate, compared with 4-demethylpenclomedine: slightly higher survival rate
  tumor growth delay, comparison of the two compounds: identical tumor growth delay
